This note sets out measurements from patent US20250082633A1, “COMPOUNDS AND METHODS FOR MODULATING SPLICING” (REMIX THERAPEUTICS INC., priority 2021, published 2025).

Each structure is given as a SMILES string. Like-named read-outs stand apart in the source and are kept apart here.

Assay [1] relates to MYB mRNA. Description: RT-qPCR splicing assay, MYB canonical (CJ) and alternative (AJ) junction mRNA. Particulars: Homo sapiens; for IC50: read-out: MYB CJ IC50; for AC50: increase in alternative junction mRNA, read-out: MYB AJ AC50. The assay is classed as cell-based. In outline:
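Splice-junction mRNAs (CJ, AJ) measured by TaqMan one-step RT-qPCR on cell lysates, using PPIA as reference for adherent A673 and GAPDH or GUSB for K562. Cells exposed for 24 h to 11 threefold concentrations up to 10 uM final, with DMSO at or below 0.25%.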

Assay [2] concerns K562 cells. Briefly: Cell Titer Glo 2.0 cell viability assay. The assay is classed as cell-based. Particulars: Homo sapiens, 500 cells/well, 72 hours. In outline:
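K562 cells (500/well) in IMDM with 10% FBS were exposed to serially diluted compounds at 0.1% DMSO final. After 72 h at 37° C, 5% CO2, viability was read by CellTiter-Glo 2.0 luminescence, with medium-only blanks.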
For orientation: ATP-based viability assays read luminescence as a measure of living cells.

The mark [3] stands for this setting: decrease in CJ mRNA levels, larger panel of genes, Table 3.
The mark [4] stands for this setting: decrease in canonical junction mRNA, A673 or K562 cells, 24 hours treatment, Table 2.
Where [5] appears, read: A673 or K562 cells, 24 hours treatment, Table 2.

`Cc1nc2ccc(-c3cc(F)c4nn(C5CCNCC5)cc4c3)cc2o1` [Compound 135, 6-[7-fluoro-2-(4-piperidyl)indazol-5-yl]-2-methyl-1,3-benzoxazole]: the IC50 in assay [1] (setting [3]) and in assay [1] (setting [4]) was 0.1 to 1 µM each time. Moreover, in assay [1] (setting [5]), the AC50 fell in the range of 0.1 to 1 µM. In assay [2], this molecule had a GI50 of 0.1 to 1 µM.
Consider `Cc1nc2c(F)cc(-c3cc(F)c4nn(C5CCNCC5)cc4c3)cc2o1` [Compound 136, 4-fluoro-6-[7-fluoro-2-(4-piperidyl)indazol-5-yl]-2-methyl-1,3-benzoxazole], for which the half-inhibitory concentration (IC50) in assay [1] (setting [3]) and in assay [1] (setting [4]) was 0.1 to 1 µM each time. For the same molecule, the concentration at half-maximal activity (AC50) in assay [1] (setting [5]) is 0.1 to 1 µM. In addition, in assay [2], the GI50 was 0.1 to 1 µM.
In the case of `Cc1cn2nc(-c3cc(F)c4nn(C5CCNCC5)cc4c3)cc2c(C)n1` [Compound 124, 2-[7-fluoro-2-(4-piperidyl)indazol-5-yl]-4,6-dimethyl-pyrazolo[1,5-a]pyrazine], the half-inhibitory concentration (IC50) in assay [1] (setting [3]) and in assay [1] (setting [4]) was 0.1 to 1 µM throughout. In assay [1] (setting [5]), the AC50 fell in the range of 0.1 to 1 µM. Moreover, in assay [2], the GI50 lay in the range of 0.1 to 1 µM.
In the case of `Cc1cc(-n2cc3cc(C4CCNCC4)cc(F)c3n2)cc2cn(C)nc12` [Compound 115, 2-(2,7-dimethylindazol-5-yl)-7-fluoro-5-(4-piperidyl)indazole], the IC50 in assay [1] (setting [3]) and in assay [1] (setting [4]) was > 10 µM each time. In addition, in assay [1] (setting [5]), the AC50 fell in the range of 1 to 10 µM. The GI50 in assay [2] was 1 to 10 µM.
As for `Cc1ncc2cc(-c3cc(F)c4nn(C5CCNCC5)cc4c3)ccc2n1` [Compound 165, 6-[7-fluoro-2-(4-piperidyl)indazol-5-yl]-2-methyl-quinazoline], the IC50 in assay [1] (setting [3]) and in assay [1] (setting [4]) was > 10 µM throughout. Moreover, the AC50 in assay [1] (setting [5]) is > 10 µM. Also, in assay [2], the GI50 is > 10 µM.
For `CCN1CCC(n2cc3cc(-c4cc(C)c5nc(C)cn5n4)cc(F)c3n2)CC1` [Compound 146, 6-[2-(1-ethyl-4-piperidyl)-7-fluoro-indazol-5-yl]-2,8-dimethyl-imidazo[1,2-b]pyridazine], the IC50 in assay [1] (setting [3]) and in assay [1] (setting [4]) was 0.1 to 1 µM in each case. In assay [1] (setting [5]), the AC50 was 0.1 to 1 µM. The same molecule showed a GI50 in assay [2] of 0.1 to 1 µM.
Take `Cc1cn2nc(-c3cc(F)c4nn(C5CCN(CC6CC6)C6(CC6)C5)cc4c3)cc(C)c2n1` (stereo not shown) [Compound 183, 6-[2-[4-(cyclopropylmethyl)-4-azaspiro[2.5]octan-7-yl]-7-fluoro-indazol-5-yl]-2,8-dimethyl-imidazo[1,2-b]pyridazine]: the IC50 in assay [1] (setting [3]) and in assay [1] (setting [4]) was 0.1 to 1 µM each time. In assay [1] (setting [5]), the AC50 was 0.1 to 1 µM. The same molecule yielded a GI50 in assay [2] of 0.1 to 1 µM.
On to `Cc1cn2nc(-c3cc(F)c4nn([C@H]5CCNC[C@@H]5F)cc4c3)cc(C)c2n1` [Compound 167, 6-(7-fluoro-2-((3S,4S)-3-fluoropiperidin-4-yl)-2H-indazol-5-yl)-2,8-dimethylimidazo[1,2-b]pyridazine], for which the IC50 in assay [1] (setting [3]) and in assay [1] (setting [4]) was 1 to 10 µM each time. In assay [1] (setting [5]), the AC50 lay within 1 to 10 µM. The GI50 in assay [2] was in the range of 1 to 10 µM.
As to `Cc1cn2nc(-c3cc4cn(C5CCNCC5)nc4cc3O)cc(C)c2n1` [Compound 154, 5-(2,8-dimethylimidazo[1,2-b]pyridazin-6-yl)-2-(piperidin-4-yl)-2H-indazol-6-ol], the IC50 in assay [1] (setting [3]) and in assay [1] (setting [4]) was 0.1 to 1 µM throughout. For the same molecule, in assay [1] (setting [5]), the half-maximal activity concentration (AC50) lay within 0.1 to 1 µM. This molecule had a GI50 in assay [2] of 0.1 to 1 µM.
With `Cc1cn2nc(-c3cc(F)c4nn(C5CCN(CC6CC6)CC5)cc4c3)cc(C)c2n1` [Compound 149, 6-[2-[1-(cyclopropylmethyl)-4-piperidyl]-7-fluoro-indazol-5-yl]-2,8-dimethyl-imidazo[1,2-b]pyridazine], the IC50 in assay [1] (setting [3]) and in assay [1] (setting [4]) was 0.1 to 1 µM each time. Also, the AC50 in assay [1] (setting [5]) lay within 0.1 to 1 µM. In assay [2], the GI50 is < 0.1 µM.

The term IC50 denotes the midpoint of a concentration-inhibition curve. As usually defined, the AC50 is the concentration at which the activity in the assay is half-maximal. Usually GI50 stands for the concentration that inhibits growth by half.
